Test results as given in publication PMC5322338 (Scientific Reports, 2017).
One block for each substance: values may come before it.

Experiments:
[1] = molecular target: T1, Human neutrophil elastase (Homo sapiens, UniProt P08246); assay: IQF substrate hydrolysis kinetics with neutrophil elastase; type: biochemical; settings: substrate 0.3-5 μM, 0.1 M HEPES, 0.5 M NaCl pH 7.5, 37 °C, mean of at least three, SD <10%
T1 construct: purchased Biocentrum (Krakow, Poland)
T1 sequence (P08246 30-267): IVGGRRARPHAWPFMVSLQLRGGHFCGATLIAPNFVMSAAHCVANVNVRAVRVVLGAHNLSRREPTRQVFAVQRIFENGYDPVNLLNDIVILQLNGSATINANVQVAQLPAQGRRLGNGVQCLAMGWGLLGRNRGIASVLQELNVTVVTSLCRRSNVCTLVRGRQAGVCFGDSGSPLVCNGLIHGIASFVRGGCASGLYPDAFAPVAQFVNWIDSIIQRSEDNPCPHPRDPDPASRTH
Protocol: (§1) All kinetic measurements were performed using a Spectra Max Gemini XPS spectrofluorimeter (Molecular Devices) at 37 °C. For the substrates with the new donor acceptor pair, ACC/DNP, the excitation wavelength was 355 nm, and the emission wavelength was 460 nm; for MCA/DNP, the corresponding values were 325 and 420 nm, respectively. The substrate concentrations were varied, and the enzyme concentration was kept constant in each assay; the total reaction volume was 100 μl. Measurements were conducted for 30 min, and only the linear part of the progress curve was used to determine the reaction velocity. The measurements were repeated, and the data presented are the average of at least three measurements. The catalytic parameters kcat and KM were established using GraphPad Prism software to directly fit the initial velocities and initial substrate concentrations to the Michaelis-Menten equation using non-linear regression analysis.
Assays with neutrophil elastase were performed in a buffer containing 0.1 M HEPES and 0.5 M NaCl at pH 7.5[9]. The enzyme was incubated in assay buffer for 10 min at 37 °C prior to the substrate addition and the measurement. For elastase, the concentration of substrates containing ACC ranged from 0.3 to 5 μM, and the enzyme concentration was 0.344 nM. The concentration of substrates containing MCA was ranged from 0.3 to 5 μM, and the enzyme concentration was 1.4 nM.

caspase-3 [2] = molecular target: T2, caspase-3 (Homo sapiens, UniProt P42574); assay: IQF substrate hydrolysis kinetics with caspase-3; type: biochemical; settings: substrate 1-50 μM, Pipes buffer pH 7.2-7.4, 37 °C, mean of at least three, SD <10%
T2 construct: made in house
T2 sequence (P42574 29-175 limits assumed): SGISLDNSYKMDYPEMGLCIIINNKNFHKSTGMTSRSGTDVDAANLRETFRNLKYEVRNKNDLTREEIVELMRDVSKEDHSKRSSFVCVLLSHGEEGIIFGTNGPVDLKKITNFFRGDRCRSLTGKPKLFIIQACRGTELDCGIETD
T2 sequence (P42574 176-277 limits assumed): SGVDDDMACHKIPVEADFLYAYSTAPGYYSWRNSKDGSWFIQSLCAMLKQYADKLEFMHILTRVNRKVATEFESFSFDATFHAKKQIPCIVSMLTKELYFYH
Protocol: as §1
(§2) Caspase assays were performed in a buffer containing 20 mM Pipes, 0.1 M NaCl, 1 mM EDTA, 10 mM DTT, and 10% (w/v) sucrose at pH 7.2 to 7.4[61]. The buffer used for caspase-8, caspase-9 and caspase-10 was supplemented with 1 M sodium citrate. Each caspase was incubated with assay buffer for 30 min at 37 °C before the substrates were added. For caspase-3, the concentration of substrates containing ACC or MCA on the measurement plate ranged from 1 to 50 μM, and the enzyme concentration ranged from 1 to 3 nM. For caspase-7, the concentration of substrates containing ACC or MCA on the measurement plate ranged from 1 to 50 μM, and the enzyme concentration ranged from 10 to 30 nM. For caspase-8, the concentration of a substrates containing ACC or MCA on the measurement plate ranged from 4 to 80 μM, and the enzyme concentration ranged from 20 to 50 nM.
(§3) To obtain further insight into the caspase P1-P1′ preferences, we determined the kinetic parameters for selected IQF substrates. The kinetic analysis was performed in a similar manner to that described above (Substrate Kinetics). The buffers used for caspase-8, caspase-9, and caspase-10 were supplemented with 1.0 M sodium citrate. The enzyme concentrations were as follows: caspase-3, 6 nM; caspase-7, 25 nM; caspase-8, 30–60 nM; caspase-9, 20–140 nM; and caspase-10, 25–125 nM. When testing initiator caspases, the higher enzyme concentration was used for non-optimal LEHE/X substrates.

caspase-8 [3] = molecular target: T3, caspase-8 (Homo sapiens, UniProt Q14790); assay: IQF substrate hydrolysis kinetics with caspase-8; type: biochemical; settings: substrate 4-80 μM, Pipes buffer pH 7.2-7.4 with 1 M sodium citrate, 37 °C, mean of at least three, SD <10%
T3 construct: made in house
T3 sequence (Q14790 217-374 limits assumed): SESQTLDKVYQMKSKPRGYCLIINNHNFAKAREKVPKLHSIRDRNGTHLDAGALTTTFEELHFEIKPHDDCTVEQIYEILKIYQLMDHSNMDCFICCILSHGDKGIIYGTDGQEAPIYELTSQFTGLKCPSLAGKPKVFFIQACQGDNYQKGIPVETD
T3 sequence (Q14790 385-479 limits assumed): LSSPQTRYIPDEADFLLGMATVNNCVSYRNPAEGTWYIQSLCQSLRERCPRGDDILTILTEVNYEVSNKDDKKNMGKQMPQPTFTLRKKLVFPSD
Protocol: as §1, §2, §3

caspase-7 [4] = molecular target: T4, caspase-7 (Homo sapiens, UniProt P55210); assay: IQF substrate hydrolysis kinetics with caspase-7; type: biochemical; settings: substrate 1-50 μM, Pipes buffer pH 7.2-7.4, 37 °C, mean of at least three, SD <10%
T4 construct: made in house
T4 sequence (P55210 24-198 limits assumed): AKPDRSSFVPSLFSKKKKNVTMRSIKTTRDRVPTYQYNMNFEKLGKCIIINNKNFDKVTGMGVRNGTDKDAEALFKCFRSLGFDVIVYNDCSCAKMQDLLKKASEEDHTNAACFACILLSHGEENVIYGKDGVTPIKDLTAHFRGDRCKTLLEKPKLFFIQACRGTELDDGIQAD
T4 sequence (P55210 207-303 limits assumed): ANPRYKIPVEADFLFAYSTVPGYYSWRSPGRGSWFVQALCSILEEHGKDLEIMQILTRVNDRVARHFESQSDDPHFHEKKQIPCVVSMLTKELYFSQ
Protocol: as §1, §2, §3

caspase-3 [5] = assay: caspase-3 in caspase buffer, IQF library screening and kinetics; settings: human, 37 °C, up to 30 min
caspase-7 [6] = assay: caspase-7 in caspase buffer, IQF library screening and kinetics; settings: human, 37 °C, up to 30 min
Trypsin [7] = assay: trypsin in 0.05 M Tris, 0.15 M NaCl, 0.01% Triton X100, pH 7.6; settings: 37 °C, up to 30 min
caspase-10 = caspase-10 in caspase buffer supplemented with 1.0 M sodium citrate, IQF library screening and kinetics; settings: human, 37 °C, up to 30 min
caspase-9 = caspase-9 in caspase buffer supplemented with 1.0 M sodium citrate, IQF library screening and kinetics; settings: human, 37 °C, up to 30 min
caspase-8 [8] = assay: caspase-8 in caspase buffer supplemented with 1.0 M sodium citrate, IQF library screening and kinetics; settings: human, 37 °C, up to 30 min
trypsin [9] = assay: IQF substrate hydrolysis kinetics with trypsin; type: biochemical; settings: for kcat/Km values: ACC-GGLSX*IVK(DNP)G substrates, residue named = P1, trypsin
Protocol: as §1, with “For the substrates with the new donor acceptor pair, ACC/DNP, the excitation wavelength was 355 nm, and the emission wavelength was 460 nm; for MCA/DNP, the corresponding values were 325 and 420 nm, respectively.” left out
Trypsin was assayed in a buffer containing 0.05 M Tris, 0.15 M NaCl, and 0.01% Triton X100 at pH 7.6. The enzyme was incubated with the assay buffer for 10 min at 37 °C prior to the substrate addition and the measurement. Eight internally quenched substrates were tested in the assay. The trypsin concentration for substrates containing Arg and Lys at P1 was 0.1 nM; for Arg(Me) substrates, the enzyme concentration was 30 nM; and for all other substrates, the enzyme concentration was 200 nM.

[10] = ACC/Lys(DNP) substrate, elastase 0.34 nM, ex 355/em 460 nm
[11] = ACC/Lys(DNP) substrate, caspase-3 1.0 nM, ex 355/em 460 nm
[12] = ACC/Lys(DNP) substrate, caspase-8 20 nM, ex 355/em 460 nm
[13] = ACC/Lys(DNP) substrate, caspase-7 10 nM, ex 355/em 460 nm
[14] = ACC-GGLS(P1)*IVK(DNP)G-NH2 hydrolysis by trypsin, trypsin 0.1 nM (Arg, Lys), 30 nM (Arg(Me)), 200 nM (all others), 0.05 M Tris, 0.15 M NaCl, 0.01% Triton X100 pH 7.6, 37 °C, SD <10% (Arg/Lys), <15% (modified)
[15] = MCA/Lys(DNP) substrate, elastase 1.4 nM, ex 325/em 420 nm
[16] = MCA/Lys(DNP) substrate, caspase-3 3.0 nM, ex 325/em 420 nm
[17] = MCA/Lys(DNP) substrate, caspase-8 50 nM, ex 325/em 420 nm
[18] = MCA/Lys(DNP) substrate, caspase-7 30 nM, ex 325/em 420 nm

Substance: ACC-GAEPV*SLK(dnp)L-NH2 [ACC/Lys(DNP) internally quenched fluorescent substrate for human neutrophil elastase]
Km [1, 10]: 1.22 µM | kcat [1, 10]: 2.44 s⁻¹ | kcat/KM [1, 10]: 2 006 000 M^−1s^−1

Substance: ACC-GDEVD*GVK(dnp)D-NH2 [ACC/Lys(DNP) internally quenched fluorescent substrate for caspases]
Km (caspase-3 [2]; [11]): 6.74 µM | kcat (caspase-3 [2]; [11]): 7.52 s⁻¹ | kcat/KM (caspase-3 [2]; [11]): 1 116 000 M^−1s^−1 | Km (caspase-8 [3]; [12]): 11 µM | kcat (caspase-8 [3]; [12]): 0.32 s⁻¹ | kcat/KM (caspase-8 [3]; [12]): 29 400 M^−1s^−1 | Km (caspase-7 [4]; [13]): 8.36 µM | kcat (caspase-7 [4]; [13]): 0.47 s⁻¹ | kcat/KM (caspase-7 [4]; [13]): 56 800 M^−1s^−1

Substance: ACC-GDEVD/XKK(dnp)G-NH2 [DEVD/A]
cleaved bond (caspase-3 [5]): D-A | cleaved bond (caspase-7 [6]): D-A

Substance: ACC-GDEVD/XKK(dnp)G-NH2 [DEVD/S]
cleaved bond (caspase-3 [5]): D-S | cleaved bond (caspase-7 [6]): D-S

Substance: ACC-GGLS(P1)*IVK(DNP)G-NH2
not cleaved (Trypsin [7]): No measurable hydrolysis

Substance: ACC-GGLS(P1)*IVK(DNP)G-NH2 [ACC-GGLS(P1)*IVK(DNP)G-NH2, P1 = Arginine]
cleaved bond (Trypsin [7]): Arginine-I

Substance: ACC-GLEHD(G/A/S)KK(dnp)G-NH2 [LEHD/A]
cleaved bond (caspase-10): D-A | cleaved bond (caspase-9): D-A | cleaved bond (caspase-8 [8]): D-A

Substance: ACC-GLEHD(G/A/S)KK(dnp)G-NH2 [LEHD/G]
cleaved bond (caspase-10): D-G | cleaved bond (caspase-9): D-G | cleaved bond (caspase-8 [8]): D-G

Substance: ACC-GLEHE(G/A/S)KK(dnp)G-NH2 [LEHE/A]
cleaved bond (caspase-10): E-A | cleaved bond (caspase-9): E-A | cleaved bond (caspase-8 [8]): E-A

Substance: Arginine
Km (trypsin [9]; [14]): 2.5 µM | kcat (trypsin [9]; [14]): 24.1 s⁻¹ | kcat/KM (trypsin [9]; [14]): 9 624 000 s^−1M^−1 | kcat/Km values (trypsin [9]): 9,624,000 M^−1s^−1

Substance: Citrulline
Km (trypsin [9]; [14]): 90.3 µM | kcat (trypsin [9]; [14]): 0.000359 s⁻¹ | kcat/KM (trypsin [9]; [14]): 4 s^−1M^−1

Substance: Lysine
Km (trypsin [9]; [14]): 2.8 µM | kcat (trypsin [9]; [14]): 4.2 s⁻¹ | kcat/KM (trypsin [9]; [14]): 1 500 000 s^−1M^−1 | kcat/Km values (trypsin [9]): 1,500,000 M^−1s^−1

Substance: MCA-GAEPV*SLK(dnp)L-NH2 [MCA/Lys(DNP) internally quenched fluorescent substrate for human neutrophil elastase]
Km [1, 15]: 2.27 µM | kcat [1, 15]: 2.58 s⁻¹ | kcat/KM [1, 15]: 1 147 219 M^−1s^−1

Substance: MCA-GDEVD*GVK(dnp)D-NH2 [MCA/Lys(DNP) internally quenched fluorescent substrate for caspases]
Km (caspase-3 [2]; [16]): 4.67 µM | kcat (caspase-3 [2]; [16]): 11.24 s⁻¹ | kcat/KM (caspase-3 [2]; [16]): 2 359 000 M^−1s^−1 | Km (caspase-8 [3]; [17]): 11.7 µM | kcat (caspase-8 [3]; [17]): 0.32 s⁻¹ | kcat/KM (caspase-8 [3]; [17]): 26 300 M^−1s^−1 | Km (caspase-7 [4]; [18]): 6.17 µM | kcat (caspase-7 [4]; [18]): 0.68 s⁻¹ | kcat/KM (caspase-7 [4]; [18]): 106 000 M^−1s^−1

Now from value to substance, other results behind:

cleaved bond (caspase-3 [5]): D-G | cleaved bond (caspase-7 [6]): D-G
Substance: ACC-GDEVD/XKK(dnp)G-NH2 [DEVD/G]

cleaved bond (caspase-3 [5]): E-S | cleaved bond (caspase-7 [6]): E-S
Substance: ACC-GDEVE/XKK(dnp)G-NH2 [DEVE/S]

cleaved bond (Trypsin [7]): Citrulline-I
Substance: ACC-GGLS(P1)*IVK(DNP)G-NH2 [ACC-GGLS(P1)*IVK(DNP)G-NH2, P1 = Citrulline]

cleaved bond (caspase-10): D-S | cleaved bond (caspase-9): D-S | cleaved bond (caspase-8 [8]): D-S
Substance: ACC-GLEHD(G/A/S)KK(dnp)G-NH2 [LEHD/S]

cleaved bond (caspase-10): E-G | cleaved bond (caspase-9): E-G | cleaved bond (caspase-8 [8]): E-G
Substance: ACC-GLEHE(G/A/S)KK(dnp)G-NH2 [LEHE/G]

cleaved bond (caspase-10): E-S | cleaved bond (caspase-9): E-S | cleaved bond (caspase-8 [8]): E-S
Substance: ACC-GLEHE(G/A/S)KK(dnp)G-NH2 [LEHE/S]

KM (trypsin [9]; [14]): No measurable hydrolysis | kcat/KM (trypsin [9]; [14]): No measurable hydrolysis | kcat/Km values (trypsin [9]): did not recognize
Substance: Alanine
kcat (trypsin [9]; [14]): No measurable hydrolysis

Km (trypsin [9]; [14]): 21.9 µM | kcat/KM (trypsin [9]; [14]): 78 s^−1M^−1
Substance: Ornithine
kcat (trypsin [9]; [14]): 0.0017 s⁻¹
